One block for each molecule: values may come before it. Square brackets hold non-standard residues; d marks the D form. Ends that are not written are not given here. Peptide text beside a SMILES is read from it. αMeF = C[C@](N)(Cc1ccccc1)C(=O)O
Experiments:
RXFP4 [1] = molecular target: T1, RXFP4 (Homo sapiens, UniProt Q8TDU9); assay: Eu-R3/I5 competition binding assay in CHO-K1-RXFP4 cells; parameters: expressed in transfected cells; settings: read-out: Eu-R3/I5 pKi (converted)
Experimental: An Eu-R3/15 competition binding assay in CHO-K1-RXFP4 cells was carried out.
(§1) Competition binding curves for each peptide were performed in triplicate and each experiment was performed independently at least three times. Fluorescent measurements were carried out at excitation of 340 nm and emission of 614 nm on a BMG POLARstar plate reader (BMG Labtech, Melbourne, Australia). Pooled data were presented as mean±S.E.M. of specific binding and are fitted using a one-site binding curve in GraphPad Prism version 8 (GraphPad Inc., San Diego, USA). Statistical analyses were conducted using one-way analysis of variance with uncorrected Fisher's least significant difference (LSD) post-hoc analysis in GraphPad Prism version 9.
(§2) An additional analogue of INSL5 was utilised as a control, INSL5-A13, having an A chain (SEQ ID NO: 9) and a B chain (SEQ ID NO: 10) with a first disulfide bond between Cys 1 of the A chain and Cys 7 of the B chain, and a second disulfide bond between Cys 14 of the A chain and Cys 19 of the B chain:
(§3) Competition binding and cAMP activity assay were conducted by a procedure analogous to that described above for Example 3. The results are shown in FIG. 24 (RXFP3) and FIG. 25 (RXFP4).

RXFP4 [2] = molecular target: T1, RXFP4; assay: SmBiT-R3/I5 NanoBiT competition binding assay, HEK-LgBiT-RXFP4 membrane fractions; parameters: expressed in transfected cells; settings: RXFP4, 2 nM SmBiT-R3/I5; Table 5; read-out: SmBiT R3/I5 pKi (converted)
Experimental: Furthermore, a SmBiT-R3/15 competition binding assay was performed. All peptides were examined for their binding affinity to RXFP4 utilizing a competition NanoLuc® Binary Technology (NanoBiT™) binding assay. Briefly, HEK-LgBiT-RXFP4 crude membrane fractions (25 μg protein) were incubated with 2 nM SmBiT-R3/15 and increasing concentrations of competing peptides in binding buffer (0.5% BSA, 20 mM HEPES pH 7.5, 1.5 mM CaCl2), 50 mM NaCl) in a total of 100 μL in 96-well Optiplates (PerkinElmer, Waltham MA, USA). After 1 hour of shaking at room temperature, 1.25 μM final concentration of coelenterazine 400a was added, and luminescence measurements were recorded using a MicroBeta Microplate Counter (PerkinElmer, Waltham MA, USA). Each concentration-response curve was tested in triplicate, and each experiment was repeated at least three times with data being expressed as the mean±standard error of the mean (S.E.M) % specific.

RXFP4 [3] = molecular target: T1, RXFP4; assay: Inhibition of forskolin-induced cAMP activity in CHO-K1-RXFP4 cells (pCRE β-galactosidase reporter); format: cell-based; parameters: expressed in transfected cells; settings: for EC50: RXFP4, Table 5, read-out: cAMP pEC50 (converted)
Experimental: For agonist assays, cells were stimulated with forskolin (5 μM for RXFP3, 1 μM for RXFP4)±increasing concentrations of each peptide for 6 hours. Data were expressed as the % forskolin activity, whereby 100% was defined as forskolin alone and 0% as maximum agonist stimulation (1 μM Analogue 2 for RXFP3 and 1 μM Analogue 13 for RXFP4). Data were analysed and plotted using GraphPad Prism 9 and are expressed as the mean±SEM of the pooled data. Statistical analysis was conducted using one-way ANOVA with Uncorrected Fisher's LSD post-hoc analysis using GraphPad Prism 9.
as §2, §3

RXFP3 [4] = molecular target: T2, RXFP3 (Homo sapiens, UniProt Q9NSD7); assay: Inhibition of forskolin-induced cAMP activity in CHO-K1-RXFP3 cells (pCRE β-galactosidase reporter); format: cell-based; settings: 5 μM forskolin, 6 hours, Table 2, read-out: cAMP pEC50 (converted)
T2 construct: expressed in transfected cells
T2 sequence (Q9NSD7 1-469): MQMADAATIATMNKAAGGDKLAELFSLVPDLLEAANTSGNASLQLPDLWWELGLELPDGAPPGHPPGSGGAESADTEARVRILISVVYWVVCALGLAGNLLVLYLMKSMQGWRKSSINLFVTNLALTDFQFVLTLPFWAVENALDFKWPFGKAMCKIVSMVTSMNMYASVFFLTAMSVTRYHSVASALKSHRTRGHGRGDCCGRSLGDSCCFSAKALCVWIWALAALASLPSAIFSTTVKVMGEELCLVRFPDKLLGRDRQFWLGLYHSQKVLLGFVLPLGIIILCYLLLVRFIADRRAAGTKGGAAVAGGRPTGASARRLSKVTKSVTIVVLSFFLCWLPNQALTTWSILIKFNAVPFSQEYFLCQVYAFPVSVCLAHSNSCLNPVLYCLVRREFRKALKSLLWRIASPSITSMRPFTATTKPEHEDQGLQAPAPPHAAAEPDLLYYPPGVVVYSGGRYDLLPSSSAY
Experimental: Since RXFP3 is coupled to Gi/o proteins, peptides were tested for their ability to activate RXFP3 as measured via their ability to inhibit forskolin-induced cAMP activity in CHO-K1-RXFP3 or CHO-K1-RXFP4 cells transfected with a pCRE (cAMP Response Element) β-galactosidase reporter plasmid (as described in Belgi, A et al., Structure and function relationship of murine insulin-like peptide 5 (INSL5): free C-terminus is essential for RXFP4 receptor binding and activation. Biochemistry 2011, 50 (39), 8352-61; and Haugaard-Kedstrom, L. M et al., Synthesis and pharmacological characterization of a europium-labelled single-chain antagonist for binding studies of the relaxin-3 receptor RXFP3. Amino Acids 2015, 47 (6), 1267-71). For agonist assays, cells were stimulated with forskolin (5 μM for RXFP3, 1 μM for RXFP4)±increasing concentrations of each peptide for 6 hours. Data were expressed as the % forskolin activity, whereby 100% was defined as forskolin alone and 0% as maximum agonist stimulation (1 μM Analogue 2 for RXFP3 and 1 μM Analogue 13 for RXFP4). Data were analysed and plotted using GraphPad Prism 9 and are expressed as the mean±SEM of the pooled data. Statistical analysis was conducted using one-way ANOVA with Uncorrected Fisher's LSD post-hoc analysis using GraphPad Prism 9.
as §3

[5] = In vitro serum stability in human serum at 37° C.; settings: serum
RXFP3 [6] = molecular target: T2, RXFP3; assay: Eu-H3B1-22R competition binding assay in CHO-K1-RXFP3 cells; settings: 5 nM Eu-H3B1-22R, mean ± SEM (n), Table 2, read-out: Eu-H3B1-22R pKi (converted)
Experimental: An Eu-H3B1-22R competition binding assay was conducted in CHO-K1-RXFP3 cells.
as §1, §3

[7] = molecular target: RXFP3 (relaxin family peptide receptor 3) on CHO-K1-RXFP3 cells (UniProt Q9NSD7); assay: competition with 5 nM Eu-H3B1-22R on CHO-K1-RXFP3 cells
[8] = molecular target: RXFP4 (relaxin family peptide receptor 4) on CHO-K1-RXFP4 cells (UniProt Q8TDU9); assay: cell-based or functional assay
[9] = molecular target: RXFP4-NLuc (nanoluciferase-tagged RXFP4) (UniProt Q8TDU9); assay: cell-based or functional assay
[10] = molecular target: RXFP3 (relaxin family peptide receptor 3) on CHO-K1-RXFP3 cells (UniProt Q9NSD7); assay: cell-based or functional assay
[11] = molecular target: RXFP3-NLuc (human RXFP3 with Nanoluciferase on the C-terminus) (human) (UniProt Q9NSD7); assay: cell-based or functional assay
[12] = molecular target: RXFP4 (relaxin family peptide receptor 4) on CHO-K1-RXFP4 cells (UniProt Q8TDU9); assay: competition with 5 nM Eu-DTPA-R3/I5 on CHO-K1-RXFP4 cells
[13] = molecular target: T3, RXFP4 (relaxin family peptide receptor 4) on CHO-K1-RXFP4 cells (UniProt Q8TDU9 1-374, limits assumed); assay: cell-based or functional assay
[14] = molecular target: T4, RXFP3 (relaxin family peptide receptor 3) on CHO-K1-RXFP3 cells (UniProt Q9NSD7 1-469, limits assumed); assay: competition with Eu-H3B1-22R on CHO-K1-RXFP3 cells
T4 construct: whole, on cells; also called GPCR135
T4 sequence (looked up): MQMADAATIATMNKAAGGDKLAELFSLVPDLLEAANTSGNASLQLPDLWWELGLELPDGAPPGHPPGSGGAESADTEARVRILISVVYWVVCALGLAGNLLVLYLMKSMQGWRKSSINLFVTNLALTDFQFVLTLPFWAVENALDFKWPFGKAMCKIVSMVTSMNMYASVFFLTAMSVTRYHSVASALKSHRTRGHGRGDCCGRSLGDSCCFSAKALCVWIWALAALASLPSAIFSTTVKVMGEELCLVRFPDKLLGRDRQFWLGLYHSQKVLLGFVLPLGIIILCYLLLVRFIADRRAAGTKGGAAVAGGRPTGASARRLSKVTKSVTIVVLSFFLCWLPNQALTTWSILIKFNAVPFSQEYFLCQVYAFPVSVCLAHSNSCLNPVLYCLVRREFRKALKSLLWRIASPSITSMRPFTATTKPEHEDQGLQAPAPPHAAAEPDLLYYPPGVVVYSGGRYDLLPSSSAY

[15] = molecular target: T3, RXFP4 (relaxin family peptide receptor …); assay: competition with Eu-R3/I5 on CHO-K1-RXFP4 cells
[16] = molecular target: T4, RXFP3 (relaxin family peptide receptor …); assay: cell-based or functional assay

T1 sequence (Q8TDU9 whole entry): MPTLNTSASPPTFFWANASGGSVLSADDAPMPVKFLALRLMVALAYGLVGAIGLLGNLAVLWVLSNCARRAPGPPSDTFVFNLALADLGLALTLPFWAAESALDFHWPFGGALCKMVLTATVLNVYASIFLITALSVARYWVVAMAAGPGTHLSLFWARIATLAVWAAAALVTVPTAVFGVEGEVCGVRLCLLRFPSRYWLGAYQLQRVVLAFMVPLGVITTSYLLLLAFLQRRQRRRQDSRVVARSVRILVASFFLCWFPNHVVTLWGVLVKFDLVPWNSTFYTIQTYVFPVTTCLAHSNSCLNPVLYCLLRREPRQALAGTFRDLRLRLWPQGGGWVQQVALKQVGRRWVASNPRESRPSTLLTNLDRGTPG
RXFP4 (relaxin family peptide receptor 4) on CHO-K1-RXFP4 cells (UniProt Q8TDU9), sequence (Q8TDU9 whole entry): as above
T3 sequence (Q8TDU9 whole entry): as above
RXFP4-NLuc (nanoluciferase-tagged RXFP4), sequence (Q8TDU9 whole entry): as above

Molecule: CC[C@H](C)[C@H](NC(=O)[C@H](Cc1ccc(O)cc1)NC(=O)[C@@H](NC(=O)[C@@H](NC(=O)[C@](C)(Cc1ccccc1)NC(=O)[C@H](CCCNC(=N)N)NC(=O)[C@@H](NC(=O)[C@H](Cc1ccc(O)cc1)NC(=O)[C@](C)(Cc1ccccc1)NC(=O)[C@H](CC(C)C)NC(=O)CNC(=O)[C@@H](N)CO)[C@@H](C)CC)C(C)C)[C@@H](C)CC)C(=O)N[C@@H](CCC(=O)O)C(=O)NCC(=O)NCC(=O)N[C@@H](CO)C(=O)N[C@@H](CCCNC(=N)N)C(=O)N[C@@H](Cc1c[nH]c2ccccc12)C(=O)O [πI5B7-24-GG-S19E] (H-SGL[αMeF]YIR[αMeF]VIYIEGGSRW-OH; N-terminus and C-terminus assumed)
Ki (RXFP4 [2]): 7.41 nM | EC50 (RXFP4 [3]): 40.7 nM

Molecule: SGR[αMeF]FIR[αMeF]VIFTSR (14 residues) [H3B10-22R13/17αF (Formula X, RXFP3 antagonist)]
RXFP4 cAMP pEC50 [13]: < 5 | pKi [14]: 7.6 | binding result [15]: no binding | RXFP3 Antagonist potency pIC50 [16]: 6.98

Other lines, results leading:

Ki (RXFP4 [1]; RXFP4, Table 5): 158 nM | Ki (RXFP4 [2]): 30.9 nM | EC50 (RXFP4 [3]): 87.1 nM
Molecule: CC[C@H](C)[C@H](NC(=O)[C@H](Cc1ccc(O)cc1)NC(=O)[C@@H](NC(=O)[C@@H](NC(=O)[C@](C)(Cc1ccccc1)NC(=O)[C@H](CCCNC(=N)N)NC(=O)[C@@H](NC(=O)[C@H](Cc1ccc(O)cc1)NC(=O)[C@](C)(Cc1ccccc1)NC(=O)[C@H](CC(C)C)NC(=O)CNC(=O)[C@@H](N)CO)[C@@H](C)CC)C(C)C)[C@@H](C)CC)C(=O)N[C@@H](CO)C(=O)NCC(=O)NCC(=O)N[C@@H](CO)C(=O)N[C@@H](CCCNC(=N)N)C(=O)N[C@@H](Cc1c[nH]c2ccccc12)C(=O)O [aF stapled analogue] (H-SGL[αMeF]YIR[αMeF]VIYISGGSRW-OH)

EC50 (RXFP3 [4]): > 10000 nM | half-life at 400 µg/mL [5]: ~20 min | Ki (RXFP4 [1]; RXFP4, CHO-K1-RXFP4 cells, 5 nM Eu-R3/I5, Table 3): > 10000 nM | cAMP pEC50 (RXFP4 [3]; RXFP4, CHO-K1-RXFP4 cells, 1 μM forskolin, 6 hours, Table 3): No activity (3) | Ki (RXFP3 [6]): > 10000 nM
Molecule: SGREFIRAVIFTSGGSRW-OH [H3B10-27]

pKi [7]: 7.77 | cAMP pEC50 [8]: 8.98 | RXFP4 pEC50 (β-arrestin2 recruitment, NanoBRET AUC) [9]: 7.56 | cAMP pEC50 [10]: 8.89 | RXFP3 pEC50 (β-arrestin2 recruitment, NanoBRET AUC) [11]: 7.91 | pKi [12]: 8.28
Molecule: R3/I5 (R3/I5 chimeric relaxin peptide, RXFP3 agonist) (ligand)
